Measurements as given in US11851459B2, “Methods and uses of modulators of anaphase promoting complex (APC) activity for treating cancer” (University of Saskatchewan, priority 2018, dated 2023).

Legend:
Apc10 = biological target: T1, Apc10 (Saccharomyces cerevisiae, UniProt P53068); assay: Yeast 2-hybrid (Y2H) assay, Apc10 bait; format: binding
T1 construct: expressed in transfected cells; host or cells: yeast Y2H cells
T1 sequence (P53068 1-250): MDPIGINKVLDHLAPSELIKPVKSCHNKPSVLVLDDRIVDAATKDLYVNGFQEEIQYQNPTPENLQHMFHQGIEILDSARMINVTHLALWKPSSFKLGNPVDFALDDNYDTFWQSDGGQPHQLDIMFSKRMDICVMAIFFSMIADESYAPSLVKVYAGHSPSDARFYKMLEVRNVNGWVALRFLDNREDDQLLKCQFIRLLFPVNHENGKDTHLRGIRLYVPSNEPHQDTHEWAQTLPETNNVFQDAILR
Procedure: (§1) The reverse genetic screen utilized a yeast 2-hybrid (Y2H) protocol that selected for peptides that bound to the APC subunits Apc5 or Apc10 (see FIG. 8 for APC structure), to assess whether peptide-binding might modify APC function. Peptides that bound APC subunits were then assayed for those that suppressed APC mutant defects.
A library of random small peptides were cloned into a Thioredoxin (Trx) scaffold (see FIG. 9 for Trx-peptide structure) and expressed from a galactose-inducible Y2H prey vector in cells expressing the Apc10 bait vector (the modified Apc10 is still part of the complete APC complex). Six peptides that reproducibly interacted with the Apc10 bait construct in Y2H assays were identified (FIG. 1A) and were examined further. Cells will only grow in this assay if the peptide interacts with Apc5 or Apc10.
To identify peptides that bound to either Apc5 or Apc10 proteins using a yeast 2-hybrid (Y2H) screen, random small peptides were cloned into the TrxA scaffold (library provided by R. Geyer; FIG. 9) and expressed from a galactose-inducible Y2H prey vector in cells harboring either the APC5 or APC10 genes cloned into the Y2H bait vectors (APC5/APC10 bait constructs complement APC mutant defects).
(§2) Over 100 peptides that bound either Apc5 or Apc10 were recovered from millions screened. Six peptides that reproducibly interacted with the Apc5 or Apc10 bait construct in Y2H assays were examined further. Vectors expressing these 6 peptides were transformed into WT or APC mutant cells and assessed for ts growth.

apc10Δ cells = assay: apc10Δ temperature sensitive growth, spot dilutions; format: cell-based, yeast; conditions: 30 and 34° C., weakly expressed on glucose
From the text: A. Yeast 2-hybrid (Y2H) cells expressing the APC subunit bait and the galactose inducible Apc10 peptide prey grown on glucose or galactose. Cells co-expressing the Apc5 or Apc10-bait and Apc10 aptamer-prey vectors were spotted onto the appropriate media, in the presence or absence of galactose (the aptamers are Gal inducible), to confirm Y2H interactions. Growth on trp^− his^− media ensures both plasmids are maintained. A Y2H interaction will drive expression of the ADE2 gene, allowing growth on ade^− media. B. Aptamers that bind Apc10 can suppress APC mutant phenotypes. Spot dilutions of apc10Δ cells expressing an empty vector control or the one of 6 Apc10 aptamers tested. Log phase cells were 10-fold serially diluted and spotted onto plates containing either 2% glucose or 2% galactose. The plates were then incubated at 30° C. (permissive temperature) and 34° C. (restrictive stress). C. Peptides identified as binding to the yeast Apc10 APC subunit using the Y2H screen increase growth of wildtype (WT) cells. […]
The six peptide expressing vectors were transformed into apc10Δ cells and assessed for temperature sensitive growth. […]
Over 100 peptides that bound either Apc5 or Apc10 were recovered from millions screened. […] Vectors expressing these 6 peptides were transformed into WT or APC mutant cells and assessed for ts growth.

[1] = test system: apc5 temperature sensitive mutant and/or apc10Δ mutant; assay: Viability of APC mutant yeast (spot dilution); format: cell-based
From the text: Suitable APC activators also include APC activators that increase the cell viability of an wild-type and/or an APC mutant cell by at least 10%, at least 20%, at least 30%, at least 40%, at least 50%, at least 60%, at least 70% or at least 80% compared to a cell with wild-type APC function. […] Examples of yeast cells with defective APC function include apc5 and apc10 mutants. An example of an apc5 mutant is the apc5 temperature sensitive mutant described herein. An example of an apc10 mutant is the apc10 deletion mutant described herein. Viability of a yeast mutant can be measured for example, by the spot dilution assays described herein or any other method known in the art.
as §1, §2

[2] = test system: APC (substrates Cyclin B, Securin, Cdc20, HURP); assay: APC substrate westerns in MDA-MB-231 cells expressing peptides; format: cell-based, human
Procedure: A. Transient transfection of the C43-4 peptide plasmid into human triple negative MDA-MB-231 breast cancer cells followed by Western blot analysis of lysates against Cyclin B, Securin and Cdc20 showing enhanced protein loss. B. Cells in A were treated with DOX (1 uM) for 48 hrs with cell viability measured using an MTT assay kit. The experiment was done in triplicate with standard error of the means shown.
A. Stable integration of C43-4 in MDA-MB-231 cells was established by selection of transfected cells on Geneticin for 7 days. Westerns against APC substrates show APC activation. B. Cells in A were treated with DOX (1 uM) for 48 hrs with cell viability measured using an MTT assay kit. Mean and SEM of 3 biological repeats.
A. TNBC MDA-MB-231 cells stably expressing APC binding peptides activate the APC. Cells were grown to confluence and then used to prepare protein lysates. The lysates were used to measure levels of the APC substrate CDC20, which will be reduced if the APC is activated. Cells stably expressing the pcDNA empty vector were used as a control. B. In a similar experiment, MDA-MB-231 cells stably expressing the APC binding peptides shown, or the empty vector control, were used to measure protein levels of the APC substrate HURP using Westerns. C. Triplicate blots as in B were scanned, normalized to tubulin and plotted. Error of the mean is shown. Significant changes are indicated. D. MDA-MB-231 cells stably expressing the empty pcDNA vector, or the C43-4 and C13-3 APC binding peptides, were treated with 1 μM Doxorubicin for 24 hrs. Cell viability was measured using an MTT viability assay.
The C43-4 peptide sequence was cloned into the human expression vector pcDNA. This construct was transiently, and stably, expressed in human breast cancer cell line MDA-MB-231. […] In 231 cells, which are triple negative, aggressive and somewhat resistant to Doxorubicin, the transiently and stably transfected C43-4 peptide resensitized them to DOX treatment (FIGS. 22B and 23B).
In FIG. 26B, MDA-MB-231 cells were also stably transfected with the peptides C1-8, C2-4B, C3-1B, and C9-5. Levels of the APC substrate HURP were measured in lysates prepared from these cells. […] The empty vector pcDNA was also stably expressed in 231 cells and used as a control.

[3] = transiently transfected MDA-MB-231

Sequence	binds Apc10 in a yeast 2 hybrid assay (Apc10)	apc10Δ growth phenotype (apc10Δ cells)	viability of an APC mutant [1]	levels of the APC substrate CDC20 ([2]; MDA-MB-231 stably expressing peptides)	protein levels of CyclinB ([2]; stably transfected MDA-MB-231)	APC substrate Cdc20 [2, 3]	APC substrate Cyclin B [2, 3]	APC substrate Securin [2, 3]	levels of the APC substrate HURP ([2]; MDA-MB-231 stably transfected, normalized to tubulin)
NGSSHNDLRVRRLTLISRLC [C43-4]	Binds Apc10	suppressed the apc10Δ growth phenotype	increases the viability	reduce levels	reduced protein levels	reduced	reduced	reduced	
RMPQWWQWMWV [C2-4B]	Binds Apc10	suppressed the apc10Δ growth phenotype	increases the viability of an APC mutant						Only C1-8 did not reduce HURP levels
